Where two headings read alike, the source gives them in different places.
Key:
[1] = target: T1, human recombinant histamine H1 receptor (Homo sapiens, UniProt P35367); assay: Histamine H1 radioligand binding ([3H]Pyrilamine); details: for inhibition at 0.01 µM: 10 nM (0.01 μM) compound; for inhibition at 0.1 µM: 0.1 μM compound
T1 construct: expressed in transfected cells; host or cells: CHO cells
In short: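 Receptor expressed in CHO cells, assayed in 50 mM Tris-HCl pH 7.4 with 2 mM MgCl2, 100 mM NaCl, 250 mM sucrose. Compounds tested at 1 μM in 1% DMSO; non-specific binding set with 1 μM pyrilamine. Filter-bound radioactivity counted; values are percent inhibition of specific binding.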

[2] = target: T2, human recombinant adrenergic α2B receptor (Homo sapiens, UniProt P18089); assay: Adrenergic α2B radioligand binding ([3H]Rauwolscine); design: Inhibition of ligand binding, Adren. alpha2B: concentration or dose not given beside the values; details: for Inhibition of ligand binding, Adren. alpha2B: percent inhibition of specific binding; for inhibition at 1 µM: compounds screened at 1 μM, read-out: Inhibition of ligand binding, Adren. alpha2B (percent inhibition of specific binding)
T2 construct: expressed in transfected cells; host or cells: CHO-K1 cells
T2 sequence (P18089 1-450): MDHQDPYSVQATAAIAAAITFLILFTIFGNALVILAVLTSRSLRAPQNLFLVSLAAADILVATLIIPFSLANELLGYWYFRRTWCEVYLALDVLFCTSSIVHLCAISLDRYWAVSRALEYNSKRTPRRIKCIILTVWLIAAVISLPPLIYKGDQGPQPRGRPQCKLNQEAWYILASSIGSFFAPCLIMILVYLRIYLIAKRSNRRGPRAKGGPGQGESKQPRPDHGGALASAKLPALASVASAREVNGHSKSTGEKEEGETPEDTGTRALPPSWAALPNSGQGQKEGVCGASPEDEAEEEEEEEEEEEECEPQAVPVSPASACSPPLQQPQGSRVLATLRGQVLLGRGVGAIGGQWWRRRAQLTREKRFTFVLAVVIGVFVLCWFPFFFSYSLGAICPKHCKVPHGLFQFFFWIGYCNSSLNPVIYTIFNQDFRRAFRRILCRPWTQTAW
In short: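 Membranes from CHO-K1 cells expressing the receptor, in 50 mM Tris-HCl pH 7.4 with 12.5 mM MgCl2, 1 mM EDTA, 0.2% BSA, incubated with compounds and 2.5 nM [3H]Rauwolscine for 60 minutes at 25 °C.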

[3] = target: T3, human recombinant dopamine D2L receptor (Homo sapiens, UniProt P14416); assay: Dopamine D2L radioligand binding ([3H]Spiperone); details: for Inhibition of ligand binding, Dop. D2L: percent inhibition of specific binding; for inhibition at 1 µM: compounds screened at 1 μM, read-out: Inhibition of ligand binding, Dop. D2L (percent inhibition of specific binding)
T3 construct: expressed in transfected cells; host or cells: CHO cells
T3 sequence (P14416 whole entry): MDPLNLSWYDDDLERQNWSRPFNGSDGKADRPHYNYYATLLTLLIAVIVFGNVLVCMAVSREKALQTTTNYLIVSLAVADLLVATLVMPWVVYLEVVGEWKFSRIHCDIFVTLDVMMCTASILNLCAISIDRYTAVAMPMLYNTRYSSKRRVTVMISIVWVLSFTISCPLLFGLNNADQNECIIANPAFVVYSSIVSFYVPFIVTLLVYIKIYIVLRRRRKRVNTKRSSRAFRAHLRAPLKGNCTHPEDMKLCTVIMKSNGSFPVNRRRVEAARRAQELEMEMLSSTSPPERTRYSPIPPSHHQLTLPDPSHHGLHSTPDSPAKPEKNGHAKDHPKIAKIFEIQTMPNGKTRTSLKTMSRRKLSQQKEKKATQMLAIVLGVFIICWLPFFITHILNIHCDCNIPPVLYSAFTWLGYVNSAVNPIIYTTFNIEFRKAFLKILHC
Procedure: Non-specific binding was estimated in the presence of 10 μM Haloperidol. Receptor proteins were filtered and washed, the filters were then counted to determine [^3H]Spiperone specifically bound. […] Biochemical assay results are presented as the percent inhibition of specific binding in Table 6.

[4] = target: T4, human recombinant serotonin (5-Hydroxytryptamine) 5-HT2A receptor (Homo sapiens, UniProt P28223); assay: Serotonin 5-HT2A radioligand binding ([3H]Ketanserin); details: for Inhibition of ligand binding, Ser. 5-HT2A: percent inhibition of specific binding; for inhibition at 1 µM: read-out: Inhibition of ligand binding, Ser. 5-HT2A (percent inhibition of specific binding)
T4 construct: expressed in transfected cells; host or cells: CHO-K1 cells
T4 sequence (P28223 whole entry): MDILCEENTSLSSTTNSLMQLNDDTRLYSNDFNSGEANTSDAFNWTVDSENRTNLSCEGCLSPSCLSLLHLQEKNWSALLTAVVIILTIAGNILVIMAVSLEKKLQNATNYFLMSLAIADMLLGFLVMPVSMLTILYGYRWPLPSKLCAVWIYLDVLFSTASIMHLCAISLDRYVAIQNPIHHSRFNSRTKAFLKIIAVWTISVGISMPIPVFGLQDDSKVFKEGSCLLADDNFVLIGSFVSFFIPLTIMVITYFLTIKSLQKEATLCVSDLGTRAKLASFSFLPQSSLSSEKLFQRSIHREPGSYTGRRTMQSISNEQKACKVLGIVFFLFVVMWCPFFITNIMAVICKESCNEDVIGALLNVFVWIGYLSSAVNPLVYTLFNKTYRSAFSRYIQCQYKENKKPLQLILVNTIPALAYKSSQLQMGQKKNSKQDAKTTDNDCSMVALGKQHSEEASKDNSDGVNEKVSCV
Procedure: (§1) Compounds of the invention were incubated with 0.5 nM [^3H]Ketanserin for 60 minutes at 25° C. Non-specific binding was estimated in the presence of 1 μM Mianserin. Receptor proteins were filtered and washed, the filters were then counted to determine [^3H]Ketanserin specifically bound. […] Biochemical assay results are presented as the percent inhibition of specific binding in Table 6.

[5] = target: T5, human recombinant serotonin (5-Hydroxytryptamine) 5-HT2C receptor (Homo sapiens, UniProt P28335); assay: Serotonin 5-HT2C radioligand binding ([3H]Mesulergine); design: Inhibition of ligand binding, Ser. 5-HT2C: concentration or dose not given beside the values; details: for Inhibition of ligand binding, Ser. 5-HT2C: percent inhibition of specific binding; for inhibition at 1 µM: compounds screened at 1 μM, read-out: Inhibition of ligand binding, Ser. 5-HT2C (percent inhibition of specific binding)
T5 construct: expressed in transfected cells; host or cells: CHO-K1 cells
T5 sequence (P28335 33-458): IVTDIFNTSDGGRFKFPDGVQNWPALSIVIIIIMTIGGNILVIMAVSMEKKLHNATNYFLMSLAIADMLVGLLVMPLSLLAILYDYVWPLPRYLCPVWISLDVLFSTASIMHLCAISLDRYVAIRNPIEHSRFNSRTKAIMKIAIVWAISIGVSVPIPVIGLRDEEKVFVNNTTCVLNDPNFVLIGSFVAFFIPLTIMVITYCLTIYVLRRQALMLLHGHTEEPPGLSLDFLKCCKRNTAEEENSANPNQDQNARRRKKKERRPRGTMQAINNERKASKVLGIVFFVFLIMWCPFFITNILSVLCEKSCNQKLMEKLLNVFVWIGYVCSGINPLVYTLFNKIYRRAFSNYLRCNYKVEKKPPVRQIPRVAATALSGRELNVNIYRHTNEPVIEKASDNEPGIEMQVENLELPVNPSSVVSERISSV
Procedure: as §1, with “1” for “0.5”, “[^3H]Mesulergine” for “[^3H]Ketanserin”

[6] = target: T6, human recombinant serotonin (5-Hydroxytryptamine) 5-HT6 receptor (Homo sapiens, UniProt P50406); assay: Serotonin 5-HT6 radioligand binding ([3H]LSD); design: Inhibition of ligand binding, Ser. 5-HT6: concentration or dose not given beside the values; details: for Inhibition of ligand binding, Ser. 5-HT6: percent inhibition of specific binding; for inhibition at 1 µM: compounds screened at 1 μM, read-out: Inhibition of ligand binding, Ser. 5-HT6 (percent inhibition of specific binding)
T6 construct: expressed in transfected cells; host or cells: human HeLa cells
T6 sequence (P50406 whole entry): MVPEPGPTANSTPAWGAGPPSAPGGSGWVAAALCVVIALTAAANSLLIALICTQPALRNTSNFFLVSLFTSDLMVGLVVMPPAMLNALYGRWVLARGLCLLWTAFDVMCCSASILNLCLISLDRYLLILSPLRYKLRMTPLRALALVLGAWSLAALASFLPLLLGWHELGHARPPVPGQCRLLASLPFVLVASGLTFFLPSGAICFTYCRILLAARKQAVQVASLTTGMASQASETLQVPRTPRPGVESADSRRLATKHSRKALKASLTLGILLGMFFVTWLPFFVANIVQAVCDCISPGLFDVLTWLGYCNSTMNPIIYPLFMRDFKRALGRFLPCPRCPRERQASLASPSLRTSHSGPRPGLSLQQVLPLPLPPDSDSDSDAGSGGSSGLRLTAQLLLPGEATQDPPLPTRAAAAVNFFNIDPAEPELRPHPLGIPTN
Description: Receptor proteins were filtered and washed, the filters were then counted to determine [3H]LSD specifically bound. […] Biochemical assay results are presented as the percent inhibition of specific binding in Table 6.

[7] = percent inhibition of specific binding, screened at 1 μM, read-out: Inhibition of ligand binding, Hist. H1
[8] = compounds screened at 1 μM, read-out: Inhibition of ligand binding, Hist. H1 (percent inhibition of specific binding)
[9] = 1 μM compound, […] [3H]Pyrilamine, read-out: Histamine Binding H1, percent inhibition of specific binding
[10] = […] [3H]Pyrilamine, read-out: Histamine Binding H1, percent inhibition of specific binding

T1 sequence (P35367 whole entry): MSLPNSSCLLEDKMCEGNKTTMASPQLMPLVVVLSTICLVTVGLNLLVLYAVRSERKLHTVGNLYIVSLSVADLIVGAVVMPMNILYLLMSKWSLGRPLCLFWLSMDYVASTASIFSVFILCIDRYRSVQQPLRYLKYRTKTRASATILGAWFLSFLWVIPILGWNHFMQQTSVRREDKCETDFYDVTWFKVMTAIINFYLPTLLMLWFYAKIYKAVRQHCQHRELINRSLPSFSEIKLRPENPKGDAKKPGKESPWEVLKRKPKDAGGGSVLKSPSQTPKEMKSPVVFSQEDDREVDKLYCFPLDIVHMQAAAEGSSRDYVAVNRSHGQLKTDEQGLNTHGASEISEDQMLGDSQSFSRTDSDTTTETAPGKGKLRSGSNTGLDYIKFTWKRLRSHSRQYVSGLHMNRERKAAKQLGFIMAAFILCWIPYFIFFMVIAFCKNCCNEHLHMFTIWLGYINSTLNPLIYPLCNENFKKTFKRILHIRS

SMILES | inhibition at 1 µM [1, 7] | Inhibition of ligand binding, Adren. alpha2B [2] | Inhibition of ligand binding, Dop. D2L [3] | Inhibition of ligand binding, Ser. 5-HT2A [4] | Inhibition of ligand binding, Ser. 5-HT2C [5] | Inhibition of ligand binding, Ser. 5-HT6 [6] | inhibition at 1 µM [1, 8] | inhibition at 1 µM [2] | inhibition at 1 µM [3] | inhibition at 1 µM [4] | inhibition at 1 µM [5] | inhibition at 1 µM [6] | inhibition at 1 µM [1, 9] | inhibition at 0.01 µM [1, 10] | inhibition at 0.1 µM [1, 10]
COc1ccc(CCn2c3c(c4cc(Cl)ccc42)CN(C)CC3)cc1 [Compound 336, 8-Chloro-5-[2-(4-methoxy-phenyl)-ethyl]-2-methyl-2,3,4,5-tetrahydro-1H pyrido[4,3-b]indole] | 107% | 103% | 82% | 96% | 99% | 104% |  |  |  |  |  |  |  |  | 
Cc1ccc(CCn2c3c(c4cc(Br)ccc42)CN(C)CC3)cn1 [Compound 487, 8-bromo-2-methyl-5-(2-(6-methylpyridin-3-yl)ethyl)-2,3,4,5-tetrahydro-1H-pyrido[4,3-b]indole] |  |  |  |  |  |  | 98% | 100% | 42% | 87% | 84% | 94% |  |  | 
CN1CCc2c(c3cc(Cl)ccc3n2CCc2ccccn2)C1 [Compound 30, 8-chloro-2,3,4,5-tetrahydro-2-methyl-5-(2-(pyridin-2-yl)ethyl)-1H-pyrido[4,3-b]indole] | 80% | 102% | 29% | 91% | 90% | 90% |  |  |  |  |  |  | 80% |  | 
CN1CCc2c(c3cc(Cl)ccc3n2CCc2ccccc2)C1 [Compound 36, 8-chloro-2,3,4,5-tetrahydro-2-methyl-5-phenethyl-1H-pyrido[4,3-b]indole] | 99% | 104% | 92% | 98% | 94% | 104% |  |  |  |  |  |  | 99% | 48% | 91%
CN1CCc2c(c3cc(I)ccc3n2CC(=O)N2CCCCC2)C1 [Compound 486, 2-(1,2,3,4-tetrahydro-8-iodo-2-methylpyrido[4,3-b]indol-5-yl)-1-(piperidin-1-yl)ethanone] |  |  |  |  |  |  | 28% | 7% | 0% | 19% | 31% | 14% |  |  | 
Cc1ccc2c(c1)c1c(n2CCC2CCCCC2)CCN(C)C1 [Compound 163, 5-(2-cyclohexylethyl)-2,3,4,5-tetrahydro-2,8-dimethyl-1H-pyrido[4,3-b]indole] | 103% | 104% | 36% | 92% | 99% | 99% |  |  |  |  |  |  | 103% | 59% | 92%
CN1CCc2c(c3ccccc3n2CCc2noc(-c3ccccc3)n2)C1 [Compound C4-1] |  |  |  |  |  |  | 93% | 94% | 14% | 96% | 91% | 51% |  |  | 
CN1CCc2c(c3cc(Br)ccc3n2CC(=O)N2CCCCC2)C1 [Compound 516, 2-(8-bromo-2-methyl-3,4-dihydro-1H-pyrido[4,3-b]indol-5(2H)-yl)-1-(piperidin-1-yl)ethanone] |  |  |  |  |  |  | 49% | 21% | -4% | 6% | 58% | 9% |  |  | 
CN1CCc2c(c3cc(Cl)ccc3n2CC(=O)N2CCS(=O)(=O)CC2)C1 [Compound 295] | -3% | 18% | −7% | 0% | −19% | −1% |  |  |  |  |  |  |  |  | 

Source: US9096591B2, “Tetracyclic compounds” (Medivation Technologies, Inc., priority 2007, dated 2015)
